In patent US10538521B2, “Pyrimidine derivative having antimalarial activity” (CARNA BIOSCIENCES, INC., priority 2016, dated 2020):

Columns and labels:
[1] = system: K1 strain, a drug resistant strain of Plasmodium falciparum; assay: In vitro antimalarial assay (p-LDH, Malstat), K1 strain; type: cell-based; conditions: P. falciparum K1 (drug resistant), 72 h culture, p-LDH readout, read-out: Antimalarial activity (IC50 value), Strain K1
Description: (§1) For the evaluation of the antimalarial activity of the compound of the present invention, K1 strain, a drug resistant strain of Plasmodium falciparum, and FCR3 strain, a drug sensitive strain thereof, which were generous gift from Professor Kiyoshi Kita of the Graduate School of Medicine and Faculty of Medicine, the University of Tokyo, were used to measure the in vitro antimalarial activity of the compound against those Plasmodium species according to the method established by Otoguro et al. (Otoguro, K., Kohana, A., Manabe, C., Ishiyama, A., Ui, H., Shiomi, K., Yamada, H. & Omura, S.: Potent antimalarial activity of polyether antibiotic, X-206. J. Antibiot., 54: 658-663, (2001)).
(§2) The parasites were grown based on a slightly modified method from the original method reported by Trager and Jensen (Trager, W. and Jensen, J.: Human malaria parasites in continuous culture, Science, 193: 673-677, (1976)), and those which were maintained and sub-cultured by the method were used. More specifically, in a culture dish, erythrocytes infected with the protozoa, which had been sub-cultured using a RPMI 1640 medium to which 10% human plasma had been added and fresh human erythrocytes, were diluted (hematocrit value: 2 to 5%, parasitaemia: 0.25 to 1%), and were cultured at 37° C. in a mixed gas of 3% O2-4% CO2-93% N2, and continuously cultured while changing the medium and adding fresh erythrocytes at 2- or 3-day intervals.
(§3) A drug susceptibility test was performed by modifying the method established by Desjardins et al. (Desjardins, R. E., Canfield, C. J., Haynes, D. E. and Chulay, J. D.: Quantitative assessment of antimalarial activity in vitro by a semiautomated microdilution technique. Antimicrob. Agents Chemother., 16: 710-718 (1979)). More specifically, 190 μL of a suspension of protozoa which had been precultured (hematocrit value: 2%, parasitaemia: 0.5 or 1%) and 10 μL of a solution of a test compound (5% DMSO solution) serially diluted so that the final concentration was 12.5 to 0.0001 μM were put in each well of a 96-well plate, and after mixing, the same was cultured for 72 hours in the above mixed gas.
(§4) For the measurement of the growth of protozoa, the method established by Makler (Makler, M. T., Rise, J. M., Williams, J. A., Bancroft, J. E., Piper, R. C., Gibbins, B. L. and Hinrichs, D. J.: Parasite lactate dehydrogenase as an Assay for Plasmodium falciparum drug sensitivity, Am. J. Med. Hyg., 48: 739-741 (1993)) was modified to colorimetrically determine parasite lactate dehydrogenase (p-LDH) using Malstat reagent (Flow Inc., USA).
(§5) More specifically, 72 hours after the culture, the 96-well plate was directly frozen at −20° C. for 18 hours and melted at 37° C. to hemolyze the protozoan-infected erythrocytes and destroy the protozoa to prepare a crude enzyme solution. 100 μL of Malstat reagent and 20 μL of the crude enzyme solution were added to and mixed in each well of another 96-well plate, and after reacting for 15 minutes at room temperature, 20 μL of a nitroblue tetrazolium 2 mg/mL phenazine ethosulfate 0.1 mg/mL=1:1 solution was added to the respective wells, and reaction was performed in dark conditions at room temperature for 2 hours.
(§6) The absorbance of the blue formazan product formed by the reaction was measured at a measurement wavelength of 655 nm by using a microplate reader (Labsystems, Finland) to colorimetrically determine the growth of the protozoa. The 50% growth inhibitory concentration for the protozoa of the compound (IC50 value) was determined based on the concentration-response curve of the compound.

[2] = system: FCR3 strain, a drug sensitive strain of Plasmodium falciparum; assay: In vitro antimalarial assay (p-LDH, Malstat), FCR3 strain; type: cell-based; conditions: P. falciparum FCR3 (drug sensitive), 72 h culture, p-LDH readout, read-out: Antimalarial activity (IC50 value), Strain FCR3
Description: as §1, §2, §3, §4, §5, §6

SMILES | IC50 [1] [nM] | IC50 [2] [nM]
c1cc(Nc2nc(Nc3ccn4ccnc4c3)cc(N3CCOCC3)n2)ncn1 [Example 22, N4-(Imidazo[1,2-a]pyridin-7-yl)-6-morpholino-N2-(pyrimidin-4-yl)pyrimidine-2,4-diamine] | 100 to 1000 | 100 to 1000
COc1ccncc1Nc1nc(Nc2ccn3ccnc3c2)cc(N2CCOCC2)n1 [Example 23, N4-(Imidazo[1,2-a]pyridin-7-yl)-N2-(4-methoxypyridin-3-yl)-6-morpholinopyrimidine-2,4-diamine] | 1000 to 10000 | 100 to 1000
Cc1ccnc(Nc2nc(Nc3ccn4ccnc4c3)cc(N3CCN(C)CC3)n2)c1 [Example 25, N4-(imidazo[1,2-a]pyridin-7-yl)-6-(4-methylpiperazin-l-yl)-N 2-(4-methylpyridin-2-yl)pyrimidine-2,4-diamine] | 1000 to 10000 | 1000 to 10000
Cc1ccc(Nc2nc(Nc3ccn4ccnc4c3)cc(N3CCCCC3)n2)nc1 [Example 26, N4-(imidazo[1,2-a]pyridin-7-yl)-N2-(5-methylpyridin-2-yl)-6-(piperidin-1-yl)pyrimidine-2,4-diamine] | < 100 | < 100
Cc1ccc(Nc2nc(Nc3ccn4ccnc4c3)cc(N3CCN(C)CC3)n2)nc1 [Example 27, N4-(imidazo[1,2-a]pyridin-7-yl)-6-(4-methylpiperazin-1-yl)-N 2-(5-methylpyridin-2-yl) pyrimidine-2,4-diamine] | 100 to 1000 | 1000 to 10000
CCOc1cc(Nc2ccn3ccnc3c2)nc(Nc2cccc(C)n2)n1 [Example 29, 6-ethoxy-N4-(imidazo[1,2-a]pyridin-7-yl)-N2-(6-methylpyridin-2-yl)pyrimidine-2,4-diamine] | 100 to 1000 | 100 to 1000
Cc1cc(C)nc(Nc2nc(Nc3ccn4ccnc4c3)cc(N3CCN(C)CC3)n2)c1 [Example 30, N2-(4,6-dimethylpyridin-2-yl)-N4-(imidazo[1,2-a]pyridin-7-yl)-6-(4-methylpiperazin-1-yl) pyrimidine-2,4-diamine] | < 100 | < 100
Cc1cc(C)nc(Nc2nc(Nc3ccn4ccnc4c3)cc(N3CCN[C@@H](C)C3)n2)c1 [Example 31, (S)-N2-(4,6-dimethylpyridin-2-yl)-N4-(imidazo[1,2-a]pyridin-7-yl)-6-(3-methylpiperazin-1-yl)pyrimidine-2,4-diamine] | 100 to 1000 | 100 to 1000
CCOc1cc(Nc2ccn3ccnc3c2)nc(Nc2cc(C)cc(C)n2)n1 [Example 33, N2-(4,6-dimethylpyridin-2-yl)-6-ethoxy-N4-(imidazo[1,2-a]pyridin-7-yl)pyrimidine-2,4-diamine] | 100 to 1000 | < 100
Cc1ccnc(Nc2nc(Nc3ccn4ccnc4c3)cc(N3CCN(C)[C@@H](C)C3)n2)c1 [Example 35, (S)-6-(3,4-dimethylpiperazin-1-yl)-N4-(imidazo[1,2-a]pyridin-7-yl)-N2-(4-methylpyridin-2-yl)pyrimidine-2,4-diamine] | 1000 to 10000 | 1000 to 10000
CCOc1cc(Nc2ccn3ccnc3c2)nc(Nc2cc(C)ccn2)n1 [Example 36, 6-ethoxy-N4-(imidazo[1,2-a]pyridin-7-yl)-N2-(4-methylpyridin-2-yl) pyrimidine-2,4-diamine] | 1000 to 10000 | 1000 to 10000
Cc1ccc(Nc2nc(Nc3ccn4ccnc4c3)cc(N3CCN(C)[C@@H](C)C3)n2)nc1 [Example 37, (S)-6-(3,4-dimethylpiperazin-1-yl)-N4-(imidazo[1,2-a]pyridin-7-yl)-N2-(5-methylpyridin-2-yl)pyrimidine-2,4-diamine] | 1000 to 10000 | 1000 to 10000
CCOc1cc(Nc2ccn3ccnc3c2)nc(Nc2ccc(C)cn2)n1 [Example 38, 6-ethoxy-N4-(imidazo[1,2-a]pyridin-7-yl)-N2-(5-methylpyridin-2-yl)pyrimidine-2,4-diamine] | 100 to 1000 | 100 to 1000
Cc1cccc(Nc2nc(Nc3ccn4ccnc4c3)cc(N3CCN(C)CC3)n2)n1 [Example 39, N4-(imidazo[1,2-a]pyridin-7-yl)-6-(4-methylpiperazin-1-yl)-N2-(6-methylpyridin-2-yl)pyrimidine-2,4-diamine] | 1000 to 10000 | 1000 to 10000
Cc1cccc(Nc2nc(Nc3ccn4ccnc4c3)cc(N3CCN(C)[C@@H](C)C3)n2)n1 [Example 40, (S)-6-(3,4-dimethylpiperazin-1-yl)-N4-(imidazo[1,2-a]pyridin-7-yl)-N2-(6-methylpyridin-2-yl)pyrimidine-2,4-diamine] | 1000 to 10000 | 1000 to 10000
Cc1cccc(Nc2nc(Nc3ccn4ccnc4c3)cc(-n3ccnc3)n2)n1 [Example 41, N4-(imidazo[1,2-a]pyridin-7-yl)-6-(1H-imidazol-1-yl)-N2-(6-methylpyridin-2-yl)pyrimidine-2,4-diamine] | 100 to 1000 | < 100
Cc1ccnc(Nc2nc(Nc3ccn4ccnc4c3)cc(-n3ccnc3)n2)c1 [Example 42, N4-(imidazo[1,2-a]pyridin-7-yl)-6-(1H-imidazol-1-yl)-N2-(4-methylpyridin-2-yl)pyrimidine-2,4-diamine] | 100 to 1000 | 100 to 1000
Cc1ccc(Nc2nc(Nc3ccn4ccnc4c3)cc(-n3ccnc3)n2)nc1 [Example 43, N4-(imidazo[1,2-a]pyridin-7-yl)-6-(1H-imidazol-1-yl)-N2-(5-methylpyridin-2-yl)pyrimidine-2,4-diamine] | 100 to 1000 | < 100
Cc1ccc(Nc2nc(N)cc(Nc3ccn4ccnc4c3)n2)nc1 [Example 44] | < 100 | < 100
Cc1cc(C)nc(Nc2nc(Nc3ccn4ccnc4c3)cc(N3CCN(C)[C@@H](C)C3)n2)c1 [Example 45, (S)-6-(3,4-dimethylpiperazin-1-yl)-N2-(4,6-dimethylpyridin-2-yl)-N4-(imidazo[1,2-a]pyridin-7-yl)pyrimidine-2,4-diamine] | 1000 to 10000 | < 100
Cc1cc(C)nc(Nc2nc(Nc3ccn4ccnc4c3)cc(-n3ccnc3)n2)c1 [Example 46] | 100 to 1000 | < 100
FC(F)(F)c1ccnc(Nc2nc(Nc3ccn4ccnc4c3)cc(N3CCOCC3)n2)c1 [Example 47, N4-(imidazo[1,2-a]pyridin-7-yl)-6-morpholino-N2-(4-(trifluoromethyl)pyridin-2-yl) pyrimidine-2,4-diamine] | 100 to 1000 | < 100
COc1ccnc(Nc2nc(Nc3ccn4ccnc4c3)cc(N3CCOCC3)n2)c1 [Example 48, N4-(imidazo[1,2-a]pyridin-7-yl)-N2-(4-methoxypyridin-2-yl)-6-morpholinopyrimidine-2,4-diamine] | < 100 | < 100
O=[N+]([O-])c1ccnc(Nc2nc(Nc3ccn4ccnc4c3)cc(N3CCOCC3)n2)c1 [Example 49, N4-(imidazo[1,2-a]pyridin-7-yl)-6-morpholino-N2-(4-nitropyridin-2-yl)pyrimidine-2,4-diamine] | 1000 to 10000 | 100 to 1000
Cc1ccnc(Nc2nc(N)cc(Nc3ccn4ccnc4c3)n2)c1 [Example 50, N4-(imidazo[1,2-a]pyridin-7-yl)-N2-(4-methylpyridin-2-yl) pyrimidine-2,4,6-triamine] | < 100 | < 100
CCOc1ccc(Nc2nc(Nc3ccn4ccnc4c3)cc(N3CCCCC3)n2)cn1 [Example 51, N2-(6-ethoxypyridin-3-yl)-N4-(imidazo[1,2-a]pyridin-7-yl)-6-(piperidin-1-yl)pyrimidine-2,4-diamine] | 1000 to 10000 | 100 to 1000
